Test results from patent EP4722207A1, “OXOISOINDOLINYL-SUBSTITUTED TETRAHYDROPYRIMIDINEDIONE DERIVATIVE AND USE THEREOF” (Gluetacs Therapeutics (Shanghai) Co., Ltd., priority 2023, dated 2024).

Legend:
WEE1 = molecular target: T1, WEE1 (Homo sapiens, UniProt P30291+Q96SW2); assay: Western-blot assay, substrate protein degradation in hPBMCs: WEE1; format: cell-based; details: 24 hours of compound treatment, 50 nM and 500 nM
T1 construct: effects of the compounds of the present disclosure on the expression of target proteins in cells; endogenous in cells; host or cells: human PBMCs (hPBMCs)
T1 sequence (P30291 whole entry): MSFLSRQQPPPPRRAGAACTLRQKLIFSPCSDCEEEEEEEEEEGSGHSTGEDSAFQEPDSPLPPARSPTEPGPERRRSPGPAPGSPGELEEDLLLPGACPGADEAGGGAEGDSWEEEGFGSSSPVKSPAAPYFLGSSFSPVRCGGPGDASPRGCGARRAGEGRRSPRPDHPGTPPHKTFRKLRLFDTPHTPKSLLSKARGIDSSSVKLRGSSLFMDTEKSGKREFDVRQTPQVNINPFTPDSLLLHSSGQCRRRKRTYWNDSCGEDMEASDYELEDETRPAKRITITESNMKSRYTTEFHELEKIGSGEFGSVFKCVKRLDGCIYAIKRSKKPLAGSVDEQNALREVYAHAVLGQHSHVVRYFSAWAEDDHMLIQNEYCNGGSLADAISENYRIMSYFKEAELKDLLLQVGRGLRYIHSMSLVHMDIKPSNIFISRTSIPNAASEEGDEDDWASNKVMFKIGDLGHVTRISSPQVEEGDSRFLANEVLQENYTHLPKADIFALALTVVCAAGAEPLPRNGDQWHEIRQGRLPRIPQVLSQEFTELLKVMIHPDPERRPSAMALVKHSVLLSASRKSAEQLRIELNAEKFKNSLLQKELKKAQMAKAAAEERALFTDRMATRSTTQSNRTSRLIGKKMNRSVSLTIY
T1 sequence (Q96SW2 whole entry): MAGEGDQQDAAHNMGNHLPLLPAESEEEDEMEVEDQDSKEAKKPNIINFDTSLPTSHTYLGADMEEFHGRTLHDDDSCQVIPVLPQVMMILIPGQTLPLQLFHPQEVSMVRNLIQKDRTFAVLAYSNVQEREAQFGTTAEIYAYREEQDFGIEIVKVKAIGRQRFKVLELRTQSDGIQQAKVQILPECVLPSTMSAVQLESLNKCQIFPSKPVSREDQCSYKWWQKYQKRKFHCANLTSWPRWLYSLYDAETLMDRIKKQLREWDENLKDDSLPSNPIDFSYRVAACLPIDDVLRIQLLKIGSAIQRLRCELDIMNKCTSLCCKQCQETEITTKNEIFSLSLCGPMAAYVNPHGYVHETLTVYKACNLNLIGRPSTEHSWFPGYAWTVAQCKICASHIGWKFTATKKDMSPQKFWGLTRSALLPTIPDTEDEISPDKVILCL
T1 sequence (Q16531 whole entry partner): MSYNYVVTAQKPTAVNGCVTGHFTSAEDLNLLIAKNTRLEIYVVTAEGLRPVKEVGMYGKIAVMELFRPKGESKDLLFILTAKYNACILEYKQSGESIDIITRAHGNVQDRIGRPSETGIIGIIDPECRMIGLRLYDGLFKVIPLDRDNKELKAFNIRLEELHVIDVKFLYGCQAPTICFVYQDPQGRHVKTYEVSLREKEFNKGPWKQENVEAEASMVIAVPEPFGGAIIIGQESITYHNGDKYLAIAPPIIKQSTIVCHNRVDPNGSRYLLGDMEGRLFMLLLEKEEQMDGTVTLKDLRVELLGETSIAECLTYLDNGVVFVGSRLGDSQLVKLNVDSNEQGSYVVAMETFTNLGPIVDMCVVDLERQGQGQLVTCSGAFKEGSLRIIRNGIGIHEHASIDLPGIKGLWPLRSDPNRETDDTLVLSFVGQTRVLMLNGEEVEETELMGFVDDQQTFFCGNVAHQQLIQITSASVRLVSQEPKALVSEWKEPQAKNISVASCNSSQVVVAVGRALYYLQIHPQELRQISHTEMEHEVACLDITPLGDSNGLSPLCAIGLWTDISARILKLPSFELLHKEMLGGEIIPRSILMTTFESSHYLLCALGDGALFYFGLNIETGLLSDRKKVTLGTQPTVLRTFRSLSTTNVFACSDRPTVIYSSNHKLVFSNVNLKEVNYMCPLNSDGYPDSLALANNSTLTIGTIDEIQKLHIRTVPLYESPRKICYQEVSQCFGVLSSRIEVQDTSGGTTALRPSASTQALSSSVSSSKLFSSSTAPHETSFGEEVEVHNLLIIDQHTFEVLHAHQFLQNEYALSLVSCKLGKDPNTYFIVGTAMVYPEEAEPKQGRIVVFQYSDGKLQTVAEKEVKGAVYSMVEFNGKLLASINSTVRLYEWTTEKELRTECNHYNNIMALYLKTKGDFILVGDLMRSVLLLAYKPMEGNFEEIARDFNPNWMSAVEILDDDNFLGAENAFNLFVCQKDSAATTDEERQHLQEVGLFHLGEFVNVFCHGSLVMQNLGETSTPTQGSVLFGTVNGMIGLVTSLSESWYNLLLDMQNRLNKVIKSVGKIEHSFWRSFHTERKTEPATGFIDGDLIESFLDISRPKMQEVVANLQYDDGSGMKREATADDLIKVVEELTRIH

IKZF1 = molecular target: T2, IKZF1 (Homo sapiens, UniProt Q13422+Q96SW2); assay: Western-blot assay, substrate protein degradation in hPBMCs: IKZF1; format: cell-based; details: 24 hours of compound treatment, 50 nM and 500 nM
T2 construct: effects of the compounds of the present disclosure on the expression of target proteins in cells; endogenous in cells; host or cells: human PBMCs (hPBMCs)
T2 sequence (Q13422 whole entry): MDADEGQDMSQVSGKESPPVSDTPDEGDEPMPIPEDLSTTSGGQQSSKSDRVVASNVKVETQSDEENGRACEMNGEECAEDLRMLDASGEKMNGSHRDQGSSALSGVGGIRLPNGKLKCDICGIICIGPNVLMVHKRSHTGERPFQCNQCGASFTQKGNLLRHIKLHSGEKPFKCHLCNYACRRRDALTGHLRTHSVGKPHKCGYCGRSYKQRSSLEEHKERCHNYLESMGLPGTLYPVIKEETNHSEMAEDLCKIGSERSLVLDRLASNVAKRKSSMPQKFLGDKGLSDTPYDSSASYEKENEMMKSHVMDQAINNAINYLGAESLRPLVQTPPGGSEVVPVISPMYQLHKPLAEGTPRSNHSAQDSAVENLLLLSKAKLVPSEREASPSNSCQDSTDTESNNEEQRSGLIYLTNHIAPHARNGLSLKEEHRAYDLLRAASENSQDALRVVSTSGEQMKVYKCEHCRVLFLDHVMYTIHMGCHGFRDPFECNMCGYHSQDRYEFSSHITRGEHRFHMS
T2 sequence (Q96SW2 whole entry): as the sequence (Q96SW2 whole entry) above
T2 sequence (Q16531 whole entry partner): as the sequence (Q16531 whole entry partner) above

IKZF2 = molecular target: T3, IKZF2 (Homo sapiens, UniProt Q96SW2+Q9UKS7); assay: Western-blot assay, substrate protein degradation in hPBMCs: IKZF2; format: cell-based; details: 24 hours of compound treatment, 50 nM and 500 nM
T3 construct: effects of the compounds of the present disclosure on the expression of target proteins in cells; endogenous in cells; host or cells: human PBMCs (hPBMCs)
T3 sequence (Q9UKS7 whole entry): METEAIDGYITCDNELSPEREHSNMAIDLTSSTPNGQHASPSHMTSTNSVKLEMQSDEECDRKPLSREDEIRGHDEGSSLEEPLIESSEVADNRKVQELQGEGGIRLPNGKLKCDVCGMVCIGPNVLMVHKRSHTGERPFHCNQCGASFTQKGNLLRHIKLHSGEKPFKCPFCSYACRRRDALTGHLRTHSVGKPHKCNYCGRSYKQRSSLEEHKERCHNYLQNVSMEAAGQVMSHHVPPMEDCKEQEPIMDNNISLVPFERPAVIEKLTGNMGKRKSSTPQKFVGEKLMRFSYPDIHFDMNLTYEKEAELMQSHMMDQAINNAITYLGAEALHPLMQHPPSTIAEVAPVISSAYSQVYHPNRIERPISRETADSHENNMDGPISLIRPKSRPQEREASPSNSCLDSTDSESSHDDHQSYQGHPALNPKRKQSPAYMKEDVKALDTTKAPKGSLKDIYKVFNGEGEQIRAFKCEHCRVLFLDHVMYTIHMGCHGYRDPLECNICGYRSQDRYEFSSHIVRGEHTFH
T3 sequence (Q96SW2 whole entry): as the sequence (Q96SW2 whole entry) above
T3 sequence (Q16531 whole entry partner): as the sequence (Q16531 whole entry partner) above

IKZF3 = molecular target: T4, IKZF3 (Homo sapiens, UniProt Q96SW2+Q9UKT9); assay: Western-blot assay, substrate protein degradation in hPBMCs: IKZF3; format: cell-based; details: 24 hours of compound treatment, 50 nM and 500 nM
T4 construct: effects of the compounds of the present disclosure on the expression of target proteins in cells; endogenous in cells; host or cells: human PBMCs (hPBMCs)

CK1α = molecular target: T5, CK1α (Homo sapiens, UniProt P48729+Q96SW2); assay: Western-blot assay, substrate protein degradation in hPBMCs: CK1α; format: cell-based; details: 24 hours of compound treatment, 50 nM and 500 nM
T5 construct: effects of the compounds of the present disclosure on the expression of target proteins in cells; endogenous in cells; host or cells: human PBMCs (hPBMCs)
T5 sequence (P48729 whole entry): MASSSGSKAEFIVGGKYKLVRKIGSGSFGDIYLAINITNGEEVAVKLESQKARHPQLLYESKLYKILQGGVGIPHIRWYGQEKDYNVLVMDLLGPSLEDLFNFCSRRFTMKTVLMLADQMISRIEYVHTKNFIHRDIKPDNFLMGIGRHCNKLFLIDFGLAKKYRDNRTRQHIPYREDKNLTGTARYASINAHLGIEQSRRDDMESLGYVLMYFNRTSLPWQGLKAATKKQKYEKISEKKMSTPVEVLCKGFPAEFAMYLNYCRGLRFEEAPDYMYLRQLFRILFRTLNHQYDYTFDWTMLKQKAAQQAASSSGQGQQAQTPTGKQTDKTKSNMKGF
T5 sequence (Q96SW2 whole entry): as the sequence (Q96SW2 whole entry) above
T5 sequence (Q16531 whole entry partner): as the sequence (Q16531 whole entry partner) above

GSPT1 = molecular target: T6, GSPT1 (Homo sapiens, UniProt P15170+Q96SW2); assay: Western-blot assay, substrate protein degradation in hPBMCs: GSPT1; format: cell-based; details: 24 hours of compound treatment, 50 nM and 500 nM
T6 construct: effects of the compounds of the present disclosure on the expression of target proteins in cells; endogenous in cells; host or cells: human PBMCs (hPBMCs)
T6 sequence (P15170 whole entry): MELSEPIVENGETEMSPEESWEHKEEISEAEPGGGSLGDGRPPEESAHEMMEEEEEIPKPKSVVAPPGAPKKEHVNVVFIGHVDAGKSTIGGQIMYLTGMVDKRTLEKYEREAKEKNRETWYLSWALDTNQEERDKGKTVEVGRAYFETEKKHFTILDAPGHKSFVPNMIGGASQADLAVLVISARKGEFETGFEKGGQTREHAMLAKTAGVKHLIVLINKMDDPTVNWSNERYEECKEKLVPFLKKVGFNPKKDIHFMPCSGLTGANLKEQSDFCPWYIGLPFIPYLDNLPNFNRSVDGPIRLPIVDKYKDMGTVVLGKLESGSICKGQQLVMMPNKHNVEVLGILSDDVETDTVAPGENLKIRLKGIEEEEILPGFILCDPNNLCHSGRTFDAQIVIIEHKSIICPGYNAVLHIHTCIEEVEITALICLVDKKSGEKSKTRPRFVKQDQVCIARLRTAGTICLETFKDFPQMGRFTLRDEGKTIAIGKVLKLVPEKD
T6 sequence (Q96SW2 whole entry): as the sequence (Q96SW2 whole entry) above
T6 sequence (Q16531 whole entry partner): as the sequence (Q16531 whole entry partner) above

H292 = assay: Cell viability assay (CellTiter-Meiluncell Luminescent), tumor cell proliferation, H292; details: Homo sapiens, NCI-H292, 96 h; for inhibition at 0.01 µM: read-out: Inhibition Rate at 10 nM (%); for inhibition at 0.5 µM: read-out: Inhibition Rate at 500 nM (%)

Row | Compound | substrate protein remaining % WEE1 (WEE1) | substrate protein remaining % IKZF1 (IKZF1) | substrate protein remaining % IKZF2 (IKZF2) | substrate protein remaining % IKZF3 (IKZF3) | substrate protein remaining % CK1α (CK1α) | substrate protein remaining % GSPT1 (GSPT1) | inhibition at 0.01 µM (H292) | inhibition at 0.5 µM (H292)
1 | O=C1CCN(N2C(=O)c3ccc(CN4CC=C(c5ncnc6sc(-c7ccccc7)cc56)CC4)cc3C2=O)C(=O)N1 [GT-08430, 2-(2,4-dioxotetrahydropyrimidin-1(2H)-yl)-5-((4-(6-phenylthieno[2,3-d]pyrimidin-4-yl)-3,6-dihydropyridin-1(2H)-yl)methyl)isoindoline-1,3-dione] | A (0% ≤ substrate protein remaining % ≤ 80%) | B (80%< substrate protein remaining %≤ 100%) | B (80%< substrate protein remaining %≤ 100%) | B (80%< substrate protein remaining %≤ 100%) | B (80%< substrate protein remaining %≤ 100%) | B (80%< substrate protein remaining %≤ 100%) | 15 to 20% | 10 to 15%
2 | Cc1nc(C2=CCN(Cc3ccc4c(c3)C(=O)N(N3CCC(=O)NC3=O)C4=O)CC2)c2c3c(sc2n1)CCCC3 [GT-08432, 2-(2,4-dioxotetrahydropyrimidin-1(2H)-yl)-5-((4-(2-methyl-5,6,7,8-tetrahydrobenzo[4,5]thieno[2,3-d]pyrimidin-4-yl)-3,6-dihydropyridin-1(2H)-yl)methyl)isoindoline-1,3-dione] | B (80%< substrate protein remaining %≤ 100%) | B (80%< substrate protein remaining %≤ 100%) | B (80%< substrate protein remaining %≤ 100%) | A (0% ≤ substrate protein remaining % ≤ 80%) | A (0% ≤ substrate protein remaining % ≤ 80%) | A (0% ≤ substrate protein remaining % ≤ 80%) | 20 to 40% | 20 to 40%
3 | O=C1CCN(N2C(=O)c3ccc(CN4CC=C(c5ncnc6sc7c(c56)CCC7)CC4)cc3C2=O)C(=O)N1 [GT-08434, 5-((4-(6,7-dihydro-5H-cyclopenta[4,5]thieno[2,3-d]pyrimidin-4-yl)-3,6-dihydropyridin-1(2H)-yl)methyl)-2-(2,4-dioxotetrahydropyrimidin-1(2H)-yl)isoindoline-1,3-dione] | B (80%< substrate protein remaining %≤ 100%) | A (0% ≤ substrate protein remaining % ≤ 80%) | A (0% ≤ substrate protein remaining % ≤ 80%) | A (0% ≤ substrate protein remaining % ≤ 80%) | A (0% ≤ substrate protein remaining % ≤ 80%) | A (0% ≤ substrate protein remaining % ≤ 80%) | 20 to 40% | 15 to 20%
4 | Cc1nc(C2=CCN(Cc3ccc4c(c3)CN(N3CCC(=O)NC3=O)C4=O)CC2)c2c3c(sc2n1)CCC3 [GT-08437, 1-(5-((4-(2-methyl-6,7-dihydro-5H-cyclopenta[4,5]thieno[2,3-d]pyrimidin-4-yl)-3,6-dihydropyridin-1(2H)-yl)methyl)-1-oxoisoindolin-2-yl)dihydropyrimidine-2,4(1H,3H)-dione] | A (0% ≤ substrate protein remaining % ≤ 80%) | A (0% ≤ substrate protein remaining % ≤ 80%) | B (80%< substrate protein remaining %≤ 100%) | A (0% ≤ substrate protein remaining % ≤ 80%) | B (80%< substrate protein remaining %≤ 100%) | A (0% ≤ substrate protein remaining % ≤ 80%) | 20 to 40% | 15 to 20%
5 | O=C1CCN(N2Cc3cc(CN4CCN(c5nc(Cl)nc6c5SCC6)CC4)ccc3C2=O)C(=O)N1 [GT-08439, 1-(5-((4-(2-chloro-6,7-dihydrothieno[3,2-d]pyrimidin-4-yl)piperazin-1-yl)methyl)-1-oxoisoindolin-2-yl)dihydropyrimidine-2,4(1H,3H)-dione] | A (0% ≤ substrate protein remaining % ≤ 80%) | A (0% ≤ substrate protein remaining % ≤ 80%) | B (80%< substrate protein remaining %≤ 100%) | A (0% ≤ substrate protein remaining % ≤ 80%) | B (80%< substrate protein remaining %≤ 100%) | A (0% ≤ substrate protein remaining % ≤ 80%) | 20 to 40% | 20 to 40%
6 | O=C1CCN(N2Cc3cc(CN4CCN(c5ncnc6ccsc56)CC4)ccc3C2=O)C(=O)N1 [GT-08443, 1-(1-oxo-5-((4-(thieno[3,2-d]pyrimidin-4-yl)piperazin-1-yl)methyl)isoindolin-2-yl)dihydropyrimidine-2,4(1H,3H)-dione] | A (0% ≤ substrate protein remaining % ≤ 80%) | B (80%< substrate protein remaining %≤ 100%) | B (80%< substrate protein remaining %≤ 100%) | B (80%< substrate protein remaining %≤ 100%) | B (80%< substrate protein remaining %≤ 100%) | B (80%< substrate protein remaining %≤ 100%) | 20 to 40% | 40 to 60%
7 | O=C1CCN(N2C(=O)c3ccc(CN4CCN(c5nc(Cl)nc6c5SCC6)CC4)cc3C2=O)C(=O)N1 [GT-08448, 5-((4-(2-chloro-6,7-dihydrothieno[3,2-d]pyrimidin-4-yl)piperazin-1-yl)methyl)-2-(2,4-dioxotetrahydropyrimidin-1(2H)-yl)isoindoline-1,3-dione] | B (80%< substrate protein remaining %≤ 100%) | B (80%< substrate protein remaining %≤ 100%) | B (80%< substrate protein remaining %≤ 100%) | B (80%< substrate protein remaining %≤ 100%) | B (80%< substrate protein remaining %≤ 100%) | A (0% ≤ substrate protein remaining % ≤ 80%) | 20 to 40% | 20 to 40%
8 | O=C1CCN(N2C(=O)c3ccc(CN4CCN(c5nc6c(c(N7CCOCC7)n5)SCC6)CC4)cc3C2=O)C(=O)N1 [GT-08451, 2-(2,4-dioxotetrahydropyrimidin-1(2H)-yl)-5-((4-(4-morpholino-6,7-dihydrothieno[3,2-d]pyrimidin-2-yl)piperazin-1-yl)methyl)isoindoline-1,3-dione] | B (80%< substrate protein remaining %≤ 100%) | B (80%< substrate protein remaining %≤ 100%) | B (80%< substrate protein remaining %≤ 100%) | A (0% ≤ substrate protein remaining % ≤ 80%) | A (0% ≤ substrate protein remaining % ≤ 80%) | B (80%< substrate protein remaining %≤ 100%) | 15 to 20% | 20 to 40%
9 | O=C1CCN(N2C(=O)c3ccc(CN4CCN(c5ncnc6ccsc56)CC4)cc3C2=O)C(=O)N1 [GT-08452, 2-(2,4-dioxotetrahydropyrimidin-1(2H)-yl)-5-((4-(thieno[3,2-d]pyrimidin-4-yl)piperazin-1-yl)methyl)isoindoline-1,3-dione] | A (0% ≤ substrate protein remaining % ≤ 80%) | A (0% ≤ substrate protein remaining % ≤ 80%) | B (80%< substrate protein remaining %≤ 100%) | A (0% ≤ substrate protein remaining % ≤ 80%) | A (0% ≤ substrate protein remaining % ≤ 80%) | B (80%< substrate protein remaining %≤ 100%) | 20 to 40% | 5 to 10%
10 | O=C1CCN(N2C(=O)c3ccc(CN4CCN(c5nc(Cl)nc6ccsc56)CC4)cc3C2=O)C(=O)N1 [GT-08453, 5-((4-(2-chlorothieno[3,2-d]pyrimidin-4-yl)piperazin-1-yl)methyl)-2-(2,4-dioxotetrahydropyrimidin-1(2H)-yl)isoindoline-1,3-dione] | B (80%< substrate protein remaining %≤ 100%) | A (0% ≤ substrate protein remaining % ≤ 80%) | B (80%< substrate protein remaining %≤ 100%) | A (0% ≤ substrate protein remaining % ≤ 80%) | A (0% ≤ substrate protein remaining % ≤ 80%) | A (0% ≤ substrate protein remaining % ≤ 80%) | 20 to 40% | 10 to 15%
11 | O=C1CCN(N2C(=O)c3ccc(CN4CCN(c5nc(N6CCOCC6)nc6ccsc56)CC4)cc3C2=O)C(=O)N1 [GT-08455, 2-(2,4-dioxotetrahydropyrimidin-1(2H)-yl)-5-((4-(2-morpholinothieno[3,2-d]pyrimidin-4-yl)piperazin-1-yl)methyl)isoindoline-1,3-dione] | B (80%< substrate protein remaining %≤ 100%) | B (80%< substrate protein remaining %≤ 100%) | B (80%< substrate protein remaining %≤ 100%) | A (0% ≤ substrate protein remaining % ≤ 80%) | A (0% ≤ substrate protein remaining % ≤ 80%) | A (0% ≤ substrate protein remaining % ≤ 80%) | 5 to 10% | 15 to 20%
